Laboratory results reported in patent EP2862852B1, “Urea derivatives for the protection of stem cells” (Symrise AG, priority 2013, dated 2015).
Read-outs that look alike come from different tables or passages of the source.

Experiments:
[1] = tested on: B16V mouse melanoma cells; test: Depigmentation effect on melanoma cell cultures; assay type: cell-based; details: 0.6 mM tyrosine and 10 nM α-MSH, 96 h, read-out: IC50, inhibition of pigmentation
Procedure: B16V mouse melanoma cells are disseminated in a 96-well micro-titre plate in a concentration of 7.5 x 10^3 cells/well. After cultivation for 24 h at 37°C and 5% CO2 in RPMI medium, enriched with 10% foetal calf serum, various concentrations of the test substances and 0.6 mM tyrosine and 10 nM α-MSH (α-melanocyte stimulating hormone) are added and incubated for a further 96 h. The maximum concentration of the test substances used corresponds to 0.1 times the value of the IC20 value of the cytotoxicity assay. Only tyrosine and α-MSH are added to the controls. After incubation, sodium hydroxide solution (final concentrations: 1 M) is added to the culture medium and the absorption (A) is measured after 3 h at 400 nm.
From the inhibition of pigmentation (%) in a series of dilutions of test compounds, the IC50 for each test compound is calculated. This is the concentration of a test compound at which pigmentation is inhibited by 50%.

[2] = tested on: HHFSC (Human Hair Follicle Stem Cells); test: Stem cell protection (in vitro): inhibition of UVB-induced apoptosis, caspase 3/7 chemiluminescence; assay type: cell-based; details: light or radiation study, 25 mJ/cm^2 UVB, relative to control, read-out: Inhibition of UV induced apoptosis
Procedure: HHFSC (Human Hair Follicle Stem Cells) isolated from hair follicle bulge (Celprogen) were cultivated in culture ware pre-coated with Human Hair Follicle Stem Cell Extra-cellular Matrix (Celprogen). The cells were incubated 2 h prior to and 16 h after UVB irradiation with test compounds. Cells were irradiated with 25 mJ/cm^2 UVB in the presence of buffer solution. Apoptosis induction was evaluated by caspase 3/7 protein expression (Caspase-Glo 3/7, Promega) and quantified by chemiluminescence measurement.

20S proteasome = target: T1, 20S proteasome (Homo sapiens, UniProt P28074); test: 20S Proteasome Assay (in vitro), chymotrypsin-like protease activity in NHDF cells; assay type: cell-based; details: 72 h
T1 construct: NHDF (normal human dermal fibroblasts) cells are disseminated in a 96-well microtiter plate; endogenous in cells; host or cells: NHDF (normal human dermal fibroblasts)

SIRT1 = SIRT1 assay (in vitro), SIRT1 expression by immunofluorescence in NHDF cells; assay type: cell-based, human; details: 10 µM, 48 h, mean values of at least 2 independent experiments
Procedure: NHDF cells (normal human dermal fibroblasts) were seeded in 96-well plates. After 24 h cultivation at 37 °C and 5% CO2 in DMEM (Dulbecco's Modified Eagle Medium), cells were treated with test substances for another 48 h. After washing the cells with PBS (phosphate buffered saline), the cells were fixed with paraformaldehyde and permeabilized. Then they were washed again and blocked with BSA (bovine serum albumen), followed by incubation with […]. After extensive washing, the fluorescence is measured in a microplate reader and fluorescence images were recorded on a fluorescence microscope with an attached […].
The stimulation of SIRT1 expression was calculated by: Stimulation of SIRT1expression[%] = ((RFU test substance−RFU background)/(RFU control−RFU background) × 100)−100 [formula] • RFU test substance = relative fluorescent units of the wells with test substance, stained completely • RFU control = relative fluorescent units of the wells without test substance, stained completely • RFU background = relative fluorescent units of the wells without test substance, stained only with secondary antibody.

Heme oxygenase-1 = Heme oxygenase-1 expression (in vitro), Western blot in NHDF cells; assay type: cell-based, human; details: 24 h
Procedure: NHDF (normal human dermal fibroblasts) cells were disseminated in a 6-well plate. After cultivation in fully enriched medium (DMEM, 10% FCS) for 48 h, the serum content was reduced to 0.1% to synchronize the cell cycle. Various concentrations of the test substances, the negative control (untreated cells) and tert.- butylhydrochinon as positive control, are added and incubated for a further 24 h. After cell lysis, the protein amount was determined using the Biorad BCA assay. All samples were adjusted to the same protein level before application on a fast Criterion Gel (Biorad) to perform electrophoresis for 20 minutes at 300 V. Thereafter the proteins were transferred to a PVDF membrane on a semi-dry blotter (30 minutes, 25 V). The blotted membrane is blocked for 4 hours in a 5% milk powder solution in TBST at 4°C. After washing, the membrane is incubated with the first antibody solution HO-1 from abcam (1:500 in 1% milk powder in TBST) over night. After this, washing is repeated and the membrane has to be incubated for 1 h in the second antibody solution (goat anti mouse coupled to HRP; 1:800 in 1% milk powder). […] The resulting band pattern is detected with a chemiluminescence sensitive camera system (Vilber Loumat). The quantification was done by densitometry. The up-regulation is calculated relative to control.

Hyaluronic acid = test: Hyaluronic Acid Assay (in vitro), competitive ELISA in NHDF cells; assay type: cell-based, human; details: 72 h
Procedure: NHDF (normal human dermal fibroblasts) cells were disseminated in a 96-well microtiter plate in a concentration of 2 x 10^4 cells/well (DMEM, 10% FCS). After cultivation in fully enriched medium (DMEM, 10% FCS) for 48 h at 37°C and 5% CO2, the serum content was reduced to 0.1% to synchronize the cell cycle. Various concentrations of the test substances and TGF-beta1 as internal standard are added and incubated for a further 72 h. The maximum concentration of the test substances used corresponds to 0.2 times the value of the IC20 value of the cytotoxicity assay. Hyaluronic acid is quantified by a competitive ELISA (TECOmedical TE1017).
The percent bound for each standard and unknown substance is calculated using the following equation: HA_[ng/ml] = (Astandardortestsubstance −Ablank)/(Azerostandard −Ablank) [formula] The abbreviations have the following meanings: • A(standard or test substance): Absorption of the wells with standard or test substance • A(zero standard): Absorption of the wells without HA standard • A(blank): Absorption of the wells without antibody, without peroxidase conjugate A standard curve is generated by plotting the percent B/ B0 as a function of the log HA concentration. The HA amount in the unknown samples is calculated by interpolating from the percent B / B0 values to […]. InductionofHA[%] = ((HAtestsubstance −HAwithoutcells)/(HAcontrol −HAwithoutcells) × 100) [formula] The abbreviations have the following meanings: • HA test substance: Amount of HA of the wells with test substance and with cells • HA control: Amount of HA of the wells without test substance, but with cells • HA without cells Amount of HA of the wells without cells

Compound	IC50 ([1]; Mus musculus)	SIRT1 protein induction (SIRT1)	20S proteasome stimulation relative to control (20S proteasome; 600 µM)	also measured
CCCCCCNC(=O)NC1CCCCC1 [Compound 3, 1-cyclohexyl-3-hexyl-urea]	18 µM	–	–	–
CCCCC(CC)CNC(=O)NC1CCCCC1 (stereo not drawn) [Compound 5, 1-cyclohexyl-3-(2-ethylhexyl)urea]	12.6 µM	19%	–	inhibition at 20 µM ([2]; 0.02 mM): 20.4%; inhibition at 200 µM ([2]; 0.2 mM): 95.3%; 20S proteasome stimulation relative to control (20S proteasome; 780 µM): 37%; HO-1 up-regulation relative to control (Heme oxygenase-1; 250 µM): 10.2-fold; Hyaluronic acid stimulation relative to control (Hyaluronic acid; 0.1 µM): 67%; Hyaluronic acid stimulation relative to control (Hyaluronic acid; 0.5 µM): 51%; Hyaluronic acid stimulation relative to control (Hyaluronic acid; 5 µM): 39%
1,3-bis(2-methylcyclohexyl)urea [Compound 7]	–	–	85%	–
CC(C)(C)c1cc(O)ccc1O [tert.-butylhydrochinon, tert.- butylhydrochinon, reference compound]	–	–	–	HO-1 up-regulation relative to control (Heme oxygenase-1; 25 µM): 24.2-fold
OC[C@H]1O[C@@H](Oc2ccc(O)cc2)[C@H](O)[C@@H](O)[C@@H]1O [beta-Arbutin, reference compound]	–	–	–	IC50 [1]: 67 µM
CC(C)CN(C)C(=O)NC1CCCCC1 [Compound 6, 3-cyclohexyl-(1-iso-butyl-1-methyl)-urea]	–	–	–	20S proteasome stimulation relative to control (20S proteasome; 23.5 µM): 39%
O=C(NC1CCCCC1)NC1CCCCC1 [Compound 1, 1,3-dicyclohexylurea]	–	34%	83%	–
O=c1cc(CO)occ1O [Kojic acid, 5-hydroxy-2-hydroxymethyl-4-pyranone, reference compound]	452 µM	–	–	–
C[C@@H]1CCCC[C@H]1NC(=O)NCC1CCCCC1 (relative stereo) [Compound 4, 1-(cyclohexylmethyl)-3-(trans-2-methylcyclohexyl) urea]	14.6 µM	–	–	–
CCC(C)NC(=O)NC1CCCCC1 (stereo not drawn) [Compound 2, 1-cyclohexyl-3-sec-butyl-urea]	290 µM	57%	105%	–
